For data set [1], the target named is T1, DP receptor (Homo sapiens, UniProt Q13258).
T1 construct: endogenous in cells; host or cells: washed platelets from peripheral blood of a healthy volunteer (whole platelets in A1, platelet membrane fraction in A2)
T1 sequence (Q13258 1-359): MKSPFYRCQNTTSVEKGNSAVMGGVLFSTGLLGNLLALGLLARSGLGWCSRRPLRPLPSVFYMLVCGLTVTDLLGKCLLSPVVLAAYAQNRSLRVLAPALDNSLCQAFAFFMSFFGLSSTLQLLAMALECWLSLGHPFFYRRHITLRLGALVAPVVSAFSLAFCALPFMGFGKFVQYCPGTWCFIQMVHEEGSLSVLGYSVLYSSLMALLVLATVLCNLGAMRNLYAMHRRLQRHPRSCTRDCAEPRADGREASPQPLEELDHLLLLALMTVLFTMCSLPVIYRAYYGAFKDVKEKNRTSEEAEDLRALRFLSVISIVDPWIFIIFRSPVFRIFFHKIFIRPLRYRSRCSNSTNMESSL
Briefly: cAMP assay with washed platelets (DP inhibitory activity in vitro). Type of data set: cell-based. Particulars: 100 nM PGD2, cAMP by HTRF, read-out: IC50 (50% DP-inhibitory concentration in the cAMP assay). On the procedure: 1) Preparation of Platelet and a Method of cAMP Assay
30 ml of peripheral blood was collected from a healthy volunteer using a syringe containing one ninth amount of 3.8% sodium citrate for diagnosis. After being centrifuged at 180 g for 10 minutes at room temperature, a supernatant was collected and used as Platelet Rich Plasma (PRP). The resulting PRP was washed with wash buffer and centrifuged three times (Washed Platelet: WP) and platelets were counted by a microcell counter. WP was added to a plate in amount of 1.5×10^8/assay and the plate was treated, with 3-isobutyl-1-methylxanthin (IBMX; 0.5 mM) for 5 minutes. A reaction was initiated by adding 100 nM of PGD2 5 min after an addition of a test compound. The reaction was terminated with an addition of 1N HCl after 2 minutes and the cells were destructed using 12% triton X-100. An amount of cAMP in the supernatant was assayed by Homogeneous […] (HTRF)
In general terms: Cyclic AMP is a second messenger, typically raised through Gs and lowered through Gi signalling.

The target in data set [2] is T1, DP receptor. Briefly: Receptor binding assay, [3H]-PGD2, platelet membrane. Particulars: [3H]-PGD2, human platelet membrane, on ice 2 hours. On the procedure:
2) Receptor Binding Assay A prepared WP was homogenated and a membrane fraction was collected with high-speed centrifugation. A compound of the present invention or a reference compound A(No. IC-73 in WO 2003/097598) was added to the plate and [^3H]-PGD2 was also added. A platelet membrane, a protein concentration is 2 mg/mL, was added and mixed in the plate, and placed on ice for 2 hours. The reaction solution was transferred to a low protein-adsorptive filter and washed with a wash solution eight times using a cell harvester. After the final washing, water was removed sufficiently, and micoscinti was added. DP inhibitory activity was investigated by measuring [^3H] by using Micro Beta.

Another data set deals with Brown Norway (BN) Rats. Briefly: Test using OVA asthma model of rat. The class given is in vivo. The conditions noted are these: 10 mg/kg p.o. once a day for three days, vs control group; for inhibition rate (%) increased hyperresponsive airway: AUC of acetylcholine response curve; for inhibition rate (%) mucus-secretion: mucin in airway lavage fluid; for inhibition rate (%) infiltration of inflammatory cells: total cell number in bronchoalveolar washings. The method, then: Brown Norway (BN) Rats were sensitized by i.p. administration of 0.1 mg/mL of ovalbumin (OVA) and 1 mg of aluminum hydroxide gel. A solution of 1% OVA was aerosolized by ultrasonic nebulizer (NE-U17) and the rats were subjected to inhalation exposure of the aerosol for 30 minutes in an exposing chamber 12, 19, 26 and 33 days after the sensitization. One hour before the 4th exposure of the antigen, compounds of the present invention were administered in a dose of 10 mg/kg p.o. once a day for three days consecutively. In a control group, 0.5% of methyl cellulose was administered in place of the compound of the present invention.
Under pentobarbital anesthesia (80 mg/kg, i.p.), acetylcholine (3.9, 7.8, 15.6, 31.3, 62.5, 125, 250 and 500 μg/kg) was injected to jugular vein of the rats successively from a lower dose at intervals of 5 minutes three days after the fourth exposure to the antigen, and immediate contractile reaction of airways (an increase of insufflation pressure) was measured by a modified method of Konnzett & Rössler. Inhibition rate of increased hyperresponsive airway against the control group was calculated based on area under curve (AUC) obtained from concentration-response curve of acetylcholine.
After the measurement of increased hyperresponsive airway was; completed, bronchoalveoli of the rats were washed with 5 mL of saline three times. Total cell number in the washings was counted by a hemacytometer under light microscope, and inhibition rates of infiltration of inflammatory cells against the control group were calculated. Further, muchin in the airway lavage fluid was measured by ELIZA method using jacalin, a muchin-binding lectin, and the inhibition rates of mucus-secretion against the control group were calculated.

Molecules are shown by their SMILES. Where a name gives a salt, the structure may show the parent alone.

Broadly, the melting point is the temperature of the solid-liquid transition. As a reminder, the Ki is a dissociation constant, usually derived from enzyme kinetics or from competition with a known ligand. A lower Ki goes with tighter binding.

The molecule `CC(C)Oc1ccc(S(=O)(=O)N2CC[C@H](c3cn(CC(=O)O)c4ccc(Cl)cc34)C2)cc1` (as salt: TFA) [Compound I-62] showed a melting point of 188 to 189 °C.

The molecule `CC(C)Oc1ccc(S(=O)(=O)N2CC[C@@H](c3cn(CC(=O)O)c4ccc(Cl)cc34)C2)cc1` (as salt: TFA) [Compound I-65] had a melting point of 167 °C.

With `CC(C)Oc1ccc(S(=O)(=O)N2CCC(c3cn(CC(=O)O)c4cc(-c5ccco5)ccc34)C2)cc1` (stereo not drawn) [Compound I-77], the IC50 at DP receptor [1] was 620 pM. Besides, the affinity on DP receptor [2], expressed as Ki, was 370 pM. In the data set on Brown Norway (BN) Rats, the “inhibition rate (%) increased hyperresponsive airway” value stood at 110%, the “inhibition rate (%) mucus-secretion” value turned out to be 72% and the “inhibition rate (%) infiltration of inflammatory cells” value is recorded as 28%.

On to `CC(C)Oc1ccc(S(=O)(=O)N2CC[C@@H](c3cn(CC(=O)O)c4cc(-c5ncco5)ccc34)C2)cc1` [Compound I-103], for which, on DP receptor [1], the IC50 is 140 pM. The same molecule gave a Ki at DP receptor [2] of 20000 pM. Moreover, in the data set on Brown Norway (BN) Rats, the “inhibition rate (%) increased hyperresponsive airway” value is given as 71%, the “inhibition rate (%) mucus-secretion” value stood at 52% and the “inhibition rate (%) infiltration of inflammatory cells” value is 58%.
